# From patent publication US20140303164A1, “THERAPEUTIC COMPOUNDS” (Gilead Sciences, Inc., priority 2013, published 2014)
# Assays:
# HIV-IIIb = experiment: Test A: Antiviral Assay in MT4 Cells; format: cell-based, HIV-1; details: Human immunodeficiency virus 1, IIIB, MT4, 120 h; for inhibition at 0.2 µM: read-out: % inhibition at 0.2 μM; for inhibition at 2 µM: read-out: % inhibition at 2 μM
# Description: Test A: Antiviral Assay in MT4 Cells
# MT-4 cells were next mixed with HIV-IIIb at an m.o.i of 0.003 for 1 hour, after which time 35 μL of virus/cell mixture (2000 cells) was immediately added to each well containing 40 μL of diluted compound. The plates were then incubated at 37° C. for 5 days. […] Cell lysis was carried out by incubating at room temperature for 10 min and then chemiluminescence was read.
# [1] = Test B: Cytotoxicity Assay; format: cell-based; details: human, uninfected MT-4 cells, same protocol as Test A
# Outline: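 Uninfected MT-4 cells (2000 per well) incubated with diluted compound at 37° C. for 5 days, following the antiviral protocol without HIV-IIIb.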
SMILES,inhibition at 0.2 µM (HIV-IIIb),inhibition at 2 µM (HIV-IIIb),CC50 at 5 days [1]
"CC(C)(O)C#Cc1ccc(-c2cccc3[nH]ncc23)c([C@H](Cc2cc(F)cc(F)c2)NC(=O)Cn2nc(C(F)(F)F)c3c2C(F)(F)[C@@H]2C[C@H]32)n1 [Compound 72, 2-((3bS,4aR)-5,5-difluoro-3-(trifluoromethyl)-3b,4,4a,5-tetrahydro-1H-cyclopropa[3,4]cyclopenta[1,2-c]pyrazol-1-yl)-N—((S)-2-(3,5-difluorophenyl)-1-(6-(3-hydroxy-3-methylbut-1-yn-1-yl)-3-(1H-indazol-4-yl)pyridin-2-yl)ethyl)acetamide]",85%,87%,5.87 µM
"CC(C)n1cc(-c2ccc(-c3ccc(Cl)c4c(NS(C)(=O)=O)nn(C)c34)c([C@H](Cc3cc(F)cc(F)c3)NC(=O)Cn3nc(C(F)(F)F)c4c3C(F)(F)[C@@H]3C[C@H]43)n2)cn1 [Compound 174, N—((S)-1-(3-(4-chloro-1-methyl-3-(methylsulfonamido)-1H-indazol-7-yl)-6-(1-isopropyl-1H-pyrazol-4-yl)pyridin-2-yl)-2-(3,5-difluorophenyl)ethyl)-2-((3bS,4aR)-5,5-difluoro-3-(trifluoromethyl)-3b,4,4a,5-tetrahydro-1H-cyclopropa[3,4]cyclopenta[1,2-c]pyrazol-1-yl)acetamide]",85%,85%,> 53.2 µM
"CC(C)(O)C#Cc1ccc(-c2cccc3c(=O)[nH]ccc23)c([C@H](Cc2cc(F)cc(F)c2)NC(=O)Cn2nc(C(F)(F)F)c3c2C(F)(F)[C@@H]2C[C@H]32)n1 [Compound 24B, 2-((3bS,4aR)-5,5-difluoro-3-(trifluoromethyl)-3b,4,4a,5-tetrahydro-1H-cyclopropa[3,4]cyclopenta[1,2-c]pyrazol-1-yl)-N—((S)-2-(3,5-difluorophenyl)-1-(6-(3-hydroxy-3-methylbut-1-yn-1-yl)-3-(1-oxo-1,2-dihydroisoquinolin-5-yl)pyridin-2-yl)ethyl)acetamide]",78%,83%,5.92 µM
"CN(C)c1cc(-c2ccc(Cl)c3c(NS(C)(=O)=O)nn(C)c23)c([C@H](Cc2cc(F)cc(F)c2)NC(=O)Cn2nc(C(F)F)c3c2C(F)(F)[C@@H]2C[C@H]32)nc1C#CC(C)(C)O [Compound 183F, N—((S)-1-(3-(4-chloro-1-methyl-3-(methylsulfonamido)-1H-indazol-7-yl)-5-(dimethylamino)-6-(3-hydroxy-3-methylbut-1-yn-1-yl)pyridin-2-yl)-2-(3,5-difluorophenyl)ethyl)-2-((3b-S,4aR)-3-(difluoromethyl)-5,5-difluoro-3b,4,4a,5-tetrahydro-1H-cyclopropa[3,4]cyclopenta[1,2-c]pyrazol-1-yl)acetamide]",84%,84%,12.4 µM
"Cn1nc(NC(=O)C(C)(C)O)c2c(Cl)ccc(-c3ccc(C#CC(C)(C)O)nc3[C@H](Cc3cc(F)cc(F)c3)NC(=O)Cn3nc(C(F)F)c4c3C(F)(F)[C@@H]3C[C@H]43)c21 [Compound 89, N-(4-chloro-7-(2-((S)-1-(2-((3b-S,4aR)-3-(difluoromethyl)-5,5-difluoro-3b,4,4a,5-tetrahydro-1H-cyclopropa[3,4]cyclopenta[1,2-c]pyrazol-1-yl)acetamido)-2-(3,5-difluorophenyl)ethyl)-6-(3-hydroxy-3-methylbut-1-yn-1-yl)pyridin-3-yl)-1-methyl-1H-indazol-3-yl)-2-hydroxy-2-methylpropanamide]",95%,95%,7.77 µM
